This note sets out measurements from ChEMBL document CHEMBL1201862, “PubChem BioAssay data set” (2004).

Among the test systems are 786-0; ACHN; CAKI-1; COLO 205; HCT-116; HL-60; HOP-62; LOX IMVI; M14; MDA-MB-435; Malme-3M; NCI-H23; NCI-H460; OVCAR-3; OVCAR-5; SK-MEL-2; SNB-75; U-251; UACC-257; UACC-62.
Experiment in all cases: NCI tumour cell line growth inhibition, 48 h

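Each compound was tested at five concentrations against cells in 96-well plates for 48 hours. GI50 = concentration required for 50% inhibition of growth.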 Active and inactive are the calls of the source. No stated cut-off is given here; in the data, active = GI50 up to about 1.1 µM and inactive = higher. Some results are limits rather than exact numbers.

Take `CC(C)C1OC(/C=C/c2ccccc2)OCC1(C)C` (stereo not given): the GI50 is 37.1 µM (inactive) with 786-0; 32.2 µM (inactive) in the experiment on ACHN; 31.8 µM (inactive) with CAKI-1; 16.6 µM (inactive) with COLO 205; 25.4 µM (inactive) in the experiment on HCT-116; 19.9 µM (inactive) in the experiment on HL-60. Moreover, the GI50 in the experiment on HOP-62 is 32.1 µM (inactive); in the experiment with LOX IMVI, 18.9 µM (inactive); with M14, 36.2 µM (inactive); with MDA-MB-435 it was 33.7 µM (inactive); in the experiment with Malme-3M it was 0.91 µM (active); in the experiment with NCI-H23 it was 27.7 µM (inactive). Moreover, the GI50 is 17.1 µM (inactive) in the experiment with NCI-H460; 20.4 µM (inactive) in the experiment on OVCAR-3; 44.5 µM (inactive) in the experiment on OVCAR-5; 18.2 µM (inactive) in the experiment on SK-MEL-2; 26.9 µM (inactive) in the experiment with SNB-75; 24.9 µM (inactive) with U-251. Moreover, the GI50 was 24.8 µM (inactive) in the experiment on UACC-257 and 45.7 µM (inactive) with UACC-62.

Regarding `COc1c(O)c2ccccc2c2cc(O)ccc12`, the GI50 in the experiment with 786-0 was 12.2 µM (inactive); in the experiment with ACHN, 3.55 µM (inactive); with CAKI-1 it was 11.2 µM (inactive); with COLO 205, 16 µM (inactive); in the experiment on HCT-116 it was 4.53 µM (inactive); with HL-60, 2.86 µM (inactive). Further, the GI50 was 10.6 µM (inactive) in the experiment with HOP-62; 2 µM (inactive) with LOX IMVI; 3.64 µM (inactive) with M14; 1 µM (active) with MDA-MB-435; 1.66 µM (inactive) in the experiment on Malme-3M; 2.86 µM (inactive) in the experiment on NCI-H23. The GI50 was 7.69 µM (inactive) in the experiment on NCI-H460; 8.81 µM (inactive) in the experiment on OVCAR-3; 13.4 µM (inactive) in the experiment on OVCAR-5; 4.79 µM (inactive) with SK-MEL-2; 8.17 µM (inactive) in the experiment with SNB-75; 5.22 µM (inactive) in the experiment with U-251. For the same molecule, the GI50 is 2.1 µM (inactive) in the experiment with UACC-257 and 2.67 µM (inactive) in the experiment on UACC-62.

For `O=C(N/N=C/c1c(-c2ccccc2)no[n+]1[O-])N1CCOCC1`, the GI50 in the experiment on 786-0 was > 100 µM (inactive); in the experiment on ACHN, > 100 µM (inactive); in the experiment with CAKI-1, > 100 µM (inactive); in the experiment on COLO 205 it was > 100 µM (inactive); in the experiment with HCT-116, > 100 µM (inactive); with HL-60, 23.3 µM (inactive). Besides, the GI50 in the experiment on HOP-62, with LOX IMVI, in the experiment on M14, in the experiment with MDA-MB-435, in the experiment on Malme-3M and with NCI-H23 was > 100 µM (inactive) each time. The GI50 with NCI-H460, with OVCAR-3, in the experiment with OVCAR-5, in the experiment with SK-MEL-2, in the experiment on SNB-75 and in the experiment with U-251 was > 100 µM (inactive) throughout. Also, the GI50 in the experiment on UACC-257 and in the experiment with UACC-62 was > 100 µM (inactive) throughout.

On to `C=CCn1c(=O)c2ccccc2[n+]2c(-c3cccc([N+](=O)[O-])c3)csc12`, for which the GI50 is 48.9 µM (inactive) with 786-0; > 100 µM (inactive) with ACHN; 97.3 µM (inactive) in the experiment on CAKI-1; 24.8 µM (inactive) with COLO 205; 38.9 µM (inactive) in the experiment with HCT-116; 25.9 µM (inactive) in the experiment with HL-60. Moreover, the GI50 in the experiment with HOP-62 was 76.7 µM (inactive); in the experiment with LOX IMVI, 56.8 µM (inactive); in the experiment on M14, 62.7 µM (inactive); in the experiment with MDA-MB-435, 40.8 µM (inactive); in the experiment with Malme-3M it was > 100 µM (inactive); with NCI-H23, 54.5 µM (inactive). For the same molecule, the GI50 was 42.1 µM (inactive) with NCI-H460; 33.9 µM (inactive) in the experiment with OVCAR-3; > 100 µM (inactive) with OVCAR-5; 30.6 µM (inactive) with SK-MEL-2; 17.5 µM (inactive) in the experiment with SNB-75; 77.4 µM (inactive) in the experiment with U-251. The GI50 in the experiment on UACC-257 was 36.3 µM (inactive); with UACC-62, 31.6 µM (inactive).

`N#Cc1ccc(Oc2nc3ccccc3nc2C(=O)O)cc1`: the GI50 in the experiment on 786-0, in the experiment with ACHN, in the experiment on CAKI-1, with COLO 205, in the experiment on HCT-116 and in the experiment with HL-60 was > 100 µM (inactive) throughout. The GI50 in the experiment on HOP-62, in the experiment on LOX IMVI, in the experiment on M14, in the experiment with MDA-MB-435, in the experiment on Malme-3M and in the experiment on NCI-H23 was > 100 µM (inactive) throughout. In addition, the GI50 in the experiment on NCI-H460, with OVCAR-3, with OVCAR-5, with SK-MEL-2, in the experiment with SNB-75 and in the experiment with U-251 was > 100 µM (inactive) each time. Moreover, the GI50 in the experiment with UACC-257 and in the experiment on UACC-62 was > 100 µM (inactive) throughout.

Regarding `COC(=O)c1ccccc1C1CN=NC12Cc1c(C)ccc(C)c1C2=O` (stereo not given), the GI50 is > 100 µM (inactive) with 786-0; > 100 µM (inactive) with ACHN; > 100 µM (inactive) in the experiment on CAKI-1; > 100 µM (inactive) with COLO 205; 82.6 µM (inactive) with HCT-116; 37.6 µM (inactive) in the experiment with HL-60. In addition, the GI50 in the experiment with HOP-62 is > 100 µM (inactive); in the experiment with LOX IMVI it was > 100 µM (inactive); in the experiment with M14, > 100 µM (inactive); in the experiment on MDA-MB-435, > 100 µM (inactive); in the experiment with Malme-3M, 36.6 µM (inactive); in the experiment with NCI-H23 it was > 100 µM (inactive). For the same molecule, the GI50 in the experiment with NCI-H460, with OVCAR-3, in the experiment with OVCAR-5, with SK-MEL-2, with SNB-75 and in the experiment on U-251 was > 100 µM (inactive) in each case. Further, the GI50 with UACC-257 and with UACC-62 was > 100 µM (inactive) in each case.

Regarding `CSC(=S)Nc1cc(C)cc(C)n1`, the GI50 in the experiment with 786-0 was 22.4 µM (inactive); in the experiment on ACHN it was > 31.6 µM (inactive); in the experiment on CAKI-1 it was > 31.6 µM (inactive); in the experiment on COLO 205, > 31.6 µM (inactive); in the experiment with HCT-116, > 10 µM (inactive); with HL-60, > 31.6 µM (inactive). Also, the GI50 was > 100 µM (inactive) with HOP-62; > 31.6 µM (inactive) in the experiment on LOX IMVI; > 31.6 µM (inactive) in the experiment with M14; > 31.6 µM (inactive) with MDA-MB-435; > 31.6 µM (inactive) in the experiment on Malme-3M; > 31.6 µM (inactive) with NCI-H23. The GI50 was > 31.6 µM (inactive) in the experiment with NCI-H460; > 31.6 µM (inactive) in the experiment on OVCAR-3; > 31.6 µM (inactive) in the experiment with OVCAR-5; > 31.6 µM (inactive) in the experiment with SK-MEL-2; > 10 µM (inactive) in the experiment on SNB-75; > 31.6 µM (inactive) with U-251. For the same molecule, the GI50 in the experiment with UACC-257 and in the experiment on UACC-62 was > 31.6 µM (inactive) in each case.

Regarding `Cc1cc(=O)n2c3c(c4c(cc13)c(CN(C)C)cc(=O)n4C)OC2`, the GI50 with 786-0 was 15.9 µM (inactive); in the experiment with ACHN it was 4.97 µM (inactive); with CAKI-1, 13.1 µM (inactive); with COLO 205 it was 11.7 µM (inactive); with HCT-116, 5.2 µM (inactive); with HL-60 it was 22.2 µM (inactive). The GI50 with HOP-62 was 15.2 µM (inactive); with LOX IMVI, 13.2 µM (inactive); in the experiment on M14, 15.6 µM (inactive); with MDA-MB-435, 20.9 µM (inactive); in the experiment with Malme-3M, 12.4 µM (inactive); in the experiment with NCI-H23 it was 14 µM (inactive). Further, the GI50 with NCI-H460 was 4.46 µM (inactive); with OVCAR-3, 18.6 µM (inactive); with OVCAR-5, 37.9 µM (inactive); in the experiment with SK-MEL-2 it was 20.3 µM (inactive); in the experiment on SNB-75 it was 14.7 µM (inactive); with U-251, 32.4 µM (inactive). Also, the GI50 in the experiment on UACC-257 was 21.9 µM (inactive); in the experiment with UACC-62, 12.6 µM (inactive).

As to `CCOC(=O)c1ccc2nc(NC(=O)COC(=O)CSc3nc(C)cc(C)n3)sc2c1`, the GI50 was 97.1 µM (inactive) in the experiment on 786-0; 46.5 µM (inactive) with ACHN; 26.3 µM (inactive) in the experiment with CAKI-1; 99.1 µM (inactive) with COLO 205; 77.3 µM (inactive) in the experiment with HCT-116; 15.8 µM (inactive) in the experiment on HL-60. For the same molecule, the GI50 in the experiment with HOP-62 was 13.7 µM (inactive); with LOX IMVI it was 48 µM (inactive); in the experiment on M14, 41.6 µM (inactive); with MDA-MB-435, > 100 µM (inactive); with Malme-3M it was > 100 µM (inactive); in the experiment on NCI-H23 it was > 100 µM (inactive). For the same molecule, the GI50 with NCI-H460 is 38.7 µM (inactive); in the experiment with OVCAR-3, 25.3 µM (inactive); in the experiment with OVCAR-5, 20.4 µM (inactive); with SK-MEL-2, > 100 µM (inactive); in the experiment on SNB-75 it was 16.4 µM (inactive); in the experiment with U-251 it was 48.6 µM (inactive). Besides, the GI50 in the experiment with UACC-257 was > 100 µM (inactive); with UACC-62, 25.8 µM (inactive).

On to `COc1ccc(C2=NNC(=O)c3ccccc3N2c2nc(-c3cccs3)nc3ccc(Br)cc23)cc1`, for which the GI50 in the experiment on 786-0 is 25.8 µM (inactive); with ACHN, 61.2 µM (inactive); in the experiment on CAKI-1, 76.2 µM (inactive); in the experiment with COLO 205, 73.8 µM (inactive); with HCT-116, 69.5 µM (inactive); in the experiment with HL-60, > 100 µM (inactive). Also, the GI50 was 17.6 µM (inactive) with HOP-62; 27.1 µM (inactive) in the experiment on LOX IMVI; 37.4 µM (inactive) with M14; > 100 µM (inactive) with MDA-MB-435; 25.2 µM (inactive) with Malme-3M; 31 µM (inactive) in the experiment with NCI-H23. Further, the GI50 was 40.4 µM (inactive) with NCI-H460; 23 µM (inactive) in the experiment on OVCAR-3; 61.4 µM (inactive) with OVCAR-5; 78.9 µM (inactive) in the experiment on SK-MEL-2; 41.4 µM (inactive) in the experiment on SNB-75; 28.8 µM (inactive) with U-251. Also, the GI50 in the experiment with UACC-257 was 51.9 µM (inactive); in the experiment with UACC-62 it was 64.1 µM (inactive).
